Measurements: patent US9458203B2, “Integrin-blocking polypeptides and uses thereof” (priority 2011, dated 2016)
Like-named read-outs stand apart in the source and are kept apart here. Ends that are not written are not given here.

Tests used:
[1] = tested on: human thyroid cancer SW-579; format: in vivo, nude mice; conditions: mouse, in vivo
Experimental: (§2) Taking a certain amount of vigorously growing tumor tissue, grinding the tumor tissue under sterile conditions and preparing cell suspension at the concentration of 1×10^7 cells/ml; then hypodermicaly inoculating 0.1 ml of the cell suspension into the right axillary region of nude mice. Keeping measuring the diameter of the transplanted tumor with a vernier caliper, and randomly dividing the mice into groups when the volume of the tumor reached 100-200 mm^3. […] Measuring the tumor diameter once every other day and recording the body weight of mice simultaneously. Intravenously injecting polypeptides to mice from test groups while administering equal quantity of physiological saline to mice from the negative control group. The total medication period was 14 days. Avastin was adopted to set up a positive control group; it was administered through the tail vein once every three days while all other drugs were administered through the tail vein once a day. Leaving mice for a one-week rest after 14 days' medication, then (21 days after medication) killing the mice, surgically dissecting the tumors and measuring the weight of tumors. The tumor volume (TV) was calculated in accordance with the following formula: TV=½×a×b^2

human renal cancer A498 = format: in vivo, nude mice; conditions: mouse, in vivo
Experimental: as §2

[2] = tested on: human pancreatic cancer SW-1990; test: heterotransplanted human pancreatic cancer SW-1990 in nude mice; format: in vivo; conditions: for final weight: daily, tail vein injection
Description: (§1) The total medication period was 14 days.

[3] = tested on: human breast cancer MDA-MB-231; conditions: mouse, in vivo
Experimental: (§3) Taking a certain amount of vigorously growing tumor tissue, grinding the tumor tissue under sterile conditions and preparing cell suspension at the concentration of 1×10^7 cells/ml; then hypodermicaly inoculating 0.1 ml of the cell suspension into the right axillary region of nude mice. Keeping measuring the diameter of the transplanted tumor with a vernier caliper, and randomly dividing the mice into groups when the volume of the tumor reached 100-200 mm^3. Observing the dynamic effect of integrin-blocking polypeptides on inhibiting the growth of the tumor by means of documenting the change of tumor diameters. Measuring the tumor diameter once every other day and recording the body weight of mice simultaneously. Intravenously injecting polypeptides to mice from test groups while administering equal quantity of physiological saline to mice from the negative control group. The total medication period was 14 days. Avastin was adopted to set up a positive control group; it was administered through the tail vein once every three days while all other drugs were administered through the tail vein once a day. Leaving mice for a one-week rest after 14 days' medication, then (21 days after medication) killing the mice, surgically dissecting the tumors and measuring the weight of tumors. The tumor volume (TV) was calculated in accordance with the following formula: TV=½×a×b^2
(§4) wherein a, b refer to the length and width of the tumor respectively.
(§5) The relative tumor volume (RTV) can be calculated in accordance with the results of measurement, using the formula: RTV=Vt/V0, wherein V0 refers to the initial tumor volume measured on the date starting medication (namely d0) while Vt the tumor volume obtained through every measurement. The anti-tumor activity was evaluated by relative proliferation rate T/C (%), which was calculated in accordance with the following formula:
(§6) wherein TRTV refers to the RTV of experimental groups; CRTV refers to the RTV of the negative control group.

[4] = tested on: human bladder cancer HT1376; test: heterotransplanted human bladder cancer HT1376 in nude mice; format: in vivo; conditions: for final weight: daily, tail vein injection
Description: as §1

[5] = tested on: human gastric cancer MGC-803; test: heterotransplanted human gastric cancer MGC-803 in nude mice; conditions: for final weight: tail vein daily
Description: (§7) Keeping measuring the diameter of the transplanted tumor with a vernier caliper, and randomly dividing the mice into groups when the volume of the tumor reached 100-200 mm^3. Observing the dynamic effect of integrin-blocking polypeptides on inhibiting the growth of the tumor by means of documenting the change of tumor diameters. Measuring the tumor diameter once every other day and recording the body weight of mice simultaneously. Intravenously injecting polypeptides to mice from test groups while administering equal quantity of physiological saline to mice from the negative control group. The total medication period was 14 days. Avastin was adopted to set up a positive control group; it was administered through the tail vein once every three days while all other drugs were administered through the tail vein once a day. Leaving mice for a one-week rest after 14 days' medication, then (21 days after medication) killing the mice, surgically dissecting the tumors and measuring the weight of tumors. The tumor volume (TV) was calculated in accordance with the following formula: TV=½×a×b^2

[6] = format: in vivo, nude mice; conditions: mouse, in vivo
Description: as §1

sarcoma HT-1080 = format: in vivo, nude mice; conditions: mouse, in vivo
Description: as §1

[7] = tested on: human esophageal cancer Ec109; format: in vivo, nude mice; conditions: mouse, in vivo
Description: as §1

[8] = tested on: human testicular cancer 5637; format: in vivo, nude mice; conditions: mouse, in vivo
Description: as §1

[9] = tested on: human endometrial cancer HHUA; conditions: mouse, in vivo
Experimental: as §3
(§8) Taxol used in the positive control group was administered once every 3 days through tail vein injection, while drugs of all other groups were administered on daily basis through tail vein injection.

[10] = tested on: human gastric cancer MGC-803; conditions: mouse, in vivo
Description: as §7

[11] = tested on: human rectal cancer Colo 320; conditions: mouse, in vivo
Experimental: as §3, §8

human brain tumor SF763 = conditions: mouse, in vivo
Experimental: as §3, §8

human colon cancer HT-29 = format: in vivo, nude mice; conditions: mouse, in vivo
Experimental: as §2

melanoma B16F10 = test: transplanted melanoma B16F10 in C57BL/6 black mice; conditions: mouse, in vivo
Experimental: Hypodermically injecting polypeptides and other drugs into the left axillary region of mice from the experimental groups respectively while administering only equal quantity of physiological saline to the mice from the negative control group. The total medication period was 14 days, during which cyclophosphamide was administered once every other day, taxol once every three days, low-dose polypeptide twice a day and all other drugs once a day.

[12] = tested on: human liver cancer SMMC-7721; conditions: mouse, in vivo
Experimental: as §3, §8

human lung cancer H460 = conditions: mouse, in vivo
Experimental: as §3, §8

[13] = tested on: human gallbladder cancer GBC-SD; conditions: mouse, in vivo
Experimental: as §3
(§9) Avastin used in the positive control group was administered once every 2 days through tail vein injection, while drugs of all other groups were administered on daily basis through tail vein injection.

[14] = tested on: human ovarian cancer SK-OV-3; format: in vivo, nude mice; conditions: mouse, in vivo
Experimental: as §2

[15] = tested on: human prostate cancer DU-145; format: in vivo, nude mice; conditions: mouse, in vivo
Experimental: as §2

[16] = tested on: human cervical cancer HeLa; format: in vivo, nude mice; conditions: mouse, in vivo
Experimental: as §2

[17] = tested on: human gallbladder cancer GBC-SD; test: heterotransplanted human gallbladder cancer GBC-SD in nude mice; conditions: for final weight: daily, tail vein injection
Experimental: as §3, §9

[18] = tested on: human laryngeal cancer Hep-2; test: heterotransplanted human laryngeal cancer Hep-2 in nude mice; format: in vivo
Description: as §1

[19] = tested on: human breast cancer MDA-MB-231; test: heterotransplanted human breast cancer MDA-MB-231 in nude mice; conditions: for final weight: tail vein once a day, 14 days
Experimental: as §3, §4, §5, §6

[20] = in contrast with the negative control group

FQPVLHLVALNSPLSGGMRGIRGADFQCFQQARAVGLAGTFRA [polypeptide I]
body weight of animals, in words [1]: no significant change in body weight
toxic and side effects, in words [1]: no obvious toxic and side effects
body weight of animals, in words (human renal cancer A498): no significant change in body weight
toxic and side effects, in words (human renal cancer A498): no obvious toxic and side effects
final weight ([2]; 0.75 mg/kg/time): 23.06 ± 0.64 g
final weight ([2]; 1.5 mg/kg/time): 23.03 ± 0.65 g
final weight ([2]; 3 mg/kg/time): 22.86 ± 0.65 g
body weight of animals, in words [2, 20]: no significant change in body weight
toxic and side effects, in words ([2]; mouse, in vivo): no obvious toxic and side effects
toxic and side effects, in words [3]: no obvious toxic and side effects
final weight ([4]; 0.75 mg/kg/time): 23.17 ± 0.58 g
final weight ([4]; 1.5 mg/kg/time): 22.88 ± 0.66 g
final weight ([4]; 3 mg/kg/time): 23.14 ± 0.54 g
body weight of animals, in words [4, 20]: no significant change in body weight
toxic and side effects, in words ([4]; mouse, in vivo): no obvious toxic and side effects
final weight ([5]; 0.75 mg/kg/time): 22.98 ± 0.60 g
final weight ([5]; 1.5 mg/kg/time): 22.66 ± 0.61 g
final weight ([5]; 3 mg/kg/time): 23.23 ± 0.67 g
body weight of animals, in words [5, 20]: no significant change in body weight
body weight of animals, in words [6]: no significant change in body weight
body weight of animals, in words (sarcoma HT-1080): no significant change in body weight
toxic and side effects, in words (sarcoma HT-1080): no obvious toxic and side effects
final weight (sarcoma HT-1080; 0.75 mg/kg): 22.99 ± 0.51 g
final weight (sarcoma HT-1080; 1.5 mg/kg): 23.10 ± 0.64 g
final weight (sarcoma HT-1080; 3 mg/kg): 23.13 ± 0.38 g
body weight of animals, in words [7]: no significant change in body weight
toxic and side effects, in words [7]: no obvious toxic and side effects
toxic and side effects, in words [8]: no obvious toxic and side effects
body weight of animals, in words [9]: no significant change in body weight
toxic and side effects, in words [9]: no obvious toxic and side effects
toxic and side effects, in words [10]: no obvious toxic and side effects
body weight of animals, in words [11]: no significant change in body weight
toxic and side effects, in words [11]: no obvious toxic and side effects
final weight ([11]; 0.75 mg/kg): 23.11 ± 0.61 g
final weight ([11]; 1.5 mg/kg): 22.87 ± 0.57 g
final weight ([11]; 3 mg/kg): 20.99 ± 0.66 g
body weight of animals, in words (human brain tumor SF763): no significant change in body weight
toxic and side effects, in words (human brain tumor SF763): no obvious toxic and side effects
final weight (human brain tumor SF763; 0.75 mg/kg): 22.90 ± 0.69 g
final weight (human brain tumor SF763; 1.5 mg/kg): 22.99 ± 0.62 g
final weight (human brain tumor SF763; 3 mg/kg): 20.94 ± 0.47 g
body weight of animals, in words (human colon cancer HT-29): no significant change in body weight
toxic and side effects, in words (human colon cancer HT-29): no obvious toxic and side effects
body weight of animals, in words (melanoma B16F10): no significant change
toxic and side effects, in words (melanoma B16F10): no significant toxic and side effects
body weight of animals, in words [12]: no significant change in body weight
toxic and side effects, in words [12]: no obvious toxic and side effects
body weight of animals, in words (human lung cancer H460): no significant change in body weight
toxic and side effects, in words (human lung cancer H460): no obvious toxic and side effects
toxic and side effects, in words [13]: no obvious toxic and side effects
body weight of animals, in words [14]: no significant change in body weight
toxic and side effects, in words [14]: no obvious toxic and side effects
final weight ([14]; 0.75 mg/kg): 23.09 ± 0.59 g
final weight ([14]; 1.5 mg/kg): 22.96 ± 0.59 g
final weight ([14]; 3 mg/kg): 23.16 ± 0.51 g
body weight of animals, in words [15]: no significant change in body weight
toxic and side effects, in words [15]: no obvious toxic and side effects
body weight of animals, in words [16]: no significant change in body weight
toxic and side effects, in words [16]: no obvious toxic and side effects
final weight ([17]; 0.75 mg/kg/time): 22.95 ± 0.46 g
final weight ([17]; 1.5 mg/kg/time): 23.04 ± 0.55 g
final weight ([17]; 3 mg/kg/time): 22.89 ± 0.51 g
body weight of animals, in words [17, 20]: no significant change in body weight
final weight ([18]; body weight of nude mice, 0.75 mg/kg/time, daily, tail vein injection): 22.88 ± 0.63 g
final weight ([18]; body weight of nude mice, 1.5 mg/kg/time, daily, tail vein injection): 23.21 ± 0.62 g
final weight ([18]; body weight of nude mice, 3 mg/kg/time, daily, tail vein injection): 22.99 ± 0.62 g
body weight of animals, in words [18, 20]: no significant change in body weight
toxic and side effects, in words ([18]; mouse, in vivo): no obvious toxic and side effects
final weight ([19]; 0.75 mg/kg/time): 22.28 ± 1.75 g
final weight ([19]; 1.5 mg/kg/time): 20.21 ± 1.97 g
final weight ([19]; 3 mg/kg/time): 19.34 ± 1.13 g
body weight of animals, in words [19, 20]: no significant change in body weight

RGDGGGGFQPVLHLVALNSPLSGGMRGIRGADFQCFQQARAVGLAGTFRA [polypeptide II]
body weight of animals, in words [1]: no significant change in body weight
toxic and side effects, in words [1]: no obvious toxic and side effects
body weight of animals, in words (human renal cancer A498): no significant change in body weight
toxic and side effects, in words (human renal cancer A498): no obvious toxic and side effects
body weight of animals, in words ([2]; mouse, in vivo): no significant change in body weight
toxic and side effects, in words ([2]; mouse, in vivo): no obvious toxic and side effects
body weight of animals, in words [3]: no significant change in body weight
toxic and side effects, in words [3]: no obvious toxic and side effects
body weight of animals, in words ([4]; mouse, in vivo): no significant change in body weight
toxic and side effects, in words ([4]; mouse, in vivo): no obvious toxic and side effects
body weight of animals, in words [6]: no significant change in body weight
body weight of animals, in words (sarcoma HT-1080): no significant change in body weight
toxic and side effects, in words (sarcoma HT-1080): no obvious toxic and side effects
final weight (sarcoma HT-1080; 0.75 mg/kg): 22.93 ± 0.46 g
final weight (sarcoma HT-1080; 1.5 mg/kg): 22.95 ± 0.46 g
final weight (sarcoma HT-1080; 3 mg/kg): 23.04 ± 0.55 g
body weight of animals, in words [7]: no significant change in body weight
toxic and side effects, in words [7]: no obvious toxic and side effects
toxic and side effects, in words [8]: no obvious toxic and side effects
body weight of animals, in words [9]: no significant change in body weight
toxic and side effects, in words [9]: no obvious toxic and side effects
body weight of animals, in words [10]: no significant change in body weight
toxic and side effects, in words [10]: no obvious toxic and side effects
body weight of animals, in words [11]: no significant change in body weight
toxic and side effects, in words [11]: no obvious toxic and side effects
final weight ([11]; 0.75 mg/kg): 22.85 ± 0.61 g
final weight ([11]; 1.5 mg/kg): 23.10 ± 0.61 g
final weight ([11]; 3 mg/kg): 22.99 ± 0.37 g
body weight of animals, in words (human brain tumor SF763): no significant change in body weight
toxic and side effects, in words (human brain tumor SF763): no obvious toxic and side effects
final weight (human brain tumor SF763; 0.75 mg/kg): 22.95 ± 0.52 g
final weight (human brain tumor SF763; 1.5 mg/kg): 22.88 ± 0.52 g
final weight (human brain tumor SF763; 3 mg/kg): 23.24 ± 0.66 g
body weight of animals, in words (human colon cancer HT-29): no significant change in body weight
toxic and side effects, in words (human colon cancer HT-29): no obvious toxic and side effects
body weight of animals, in words (melanoma B16F10): no significant change in body weight
toxic and side effects, in words (melanoma B16F10): no obvious toxic and side effects
body weight of animals, in words [12]: no significant change in body weight
toxic and side effects, in words [12]: no obvious toxic and side effects
body weight of animals, in words (human lung cancer H460): no significant change in body weight
toxic and side effects, in words (human lung cancer H460): no obvious toxic and side effects
body weight of animals, in words [13]: no significant change in body weight
toxic and side effects, in words [13]: no obvious toxic and side effects
body weight of animals, in words [14]: no significant change in body weight
toxic and side effects, in words [14]: no obvious toxic and side effects
final weight ([14]; 0.75 mg/kg): 23.07 ± 0.50 g
final weight ([14]; 1.5 mg/kg): 23.32 ± 0.50 g
final weight ([14]; 3 mg/kg): 22.97 ± 0.65 g
body weight of animals, in words [15]: no significant change in body weight
toxic and side effects, in words [15]: no obvious toxic and side effects
body weight of animals, in words [16]: no significant change in body weight
toxic and side effects, in words [16]: no obvious toxic and side effects
body weight of animals, in words ([18]; mouse, in vivo): no significant change in body weight
toxic and side effects, in words ([18]; mouse, in vivo): no obvious toxic and side effects
final weight ([18]; mouse, in vivo, 0.75 mg/kg): 22.88 ± 0.70 g
final weight ([18]; mouse, in vivo, 1.5 mg/kg): 22.98 ± 0.60 g
final weight ([18]; mouse, in vivo, 3 mg/kg): 22.66 ± 0.61 g
